The results in this text go back to PubChem BioAssay AID1259407 (Chemical Carcinogenesis Research Information System (CCRIS), 2018).

The source made the active and inactive calls. How the calls were made is not given here.

The series concerns CCRIS mutagenicity, Ames/micronucleus/aberration tests. Put plainly: CCRIS mutagenicity studies.
Where [1] appears, read: Test System: AMES SALMONELLA TYPHIMURIUM, Strain/Indicator: TA98, Metabolic Activation: NONE, Method: STANDARD PLATE.
Setting [2] is: Test System: AMES SALMONELLA TYPHIMURIUM, Strain/Indicator: TA100, Metabolic Activation: NONE, Method: STANDARD PLATE.
Setting [3] is: Test System: AMES SALMONELLA TYPHIMURIUM, Strain/Indicator: TA102, Metabolic Activation: NONE, Method: STANDARD PLATE.
The mark [4] stands for this setting: Test System: AMES SALMONELLA TYPHIMURIUM, Strain/Indicator: TA98, Metabolic Activation: NONE, Method: PREINCUBATION
Where [5] appears, read: Test System: AMES SALMONELLA TYPHIMURIUM, Strain/Indicator: TA98, Metabolic Activation: RAT, LIVER, S-9, PCB, Method: PREINCUBATION
[6] abbreviates: Test System: AMES SALMONELLA TYPHIMURIUM, Strain/Indicator: TA100, Metabolic Activation: NONE, Method: PREINCUBATION

Turning to `CCN(CCCl)c1ccc(OCCCCCNc2c3ccccc3nc3ccccc23)cc1`, the mutagenic call is “inactive; negative” (Test System: AMES SALMONELLA TYPHIMURIUM, Strain/Indicator: DG1588, Metabolic Activation: NONE, Method: STANDARD PLATE); “inactive; negative” (Test System: AMES SALMONELLA TYPHIMURIUM, Strain/Indicator: DG1592, Metabolic Activation: NONE, Method: STANDARD PLATE); “active; positive” (Test System: AMES SALMONELLA TYPHIMURIUM, Strain/Indicator: DG1593, Metabolic Activation: NONE, Method: STANDARD PLATE); “active; positive” under setting [1]; “active; positive” under setting [2]; “inactive; negative” under setting [3]. For the same compound, the mutagenic call (Test System: AMES SALMONELLA TYPHIMURIUM, Strain/Indicator: TA104, Metabolic Activation: NONE, Method: STANDARD PLATE) was “inactive; negative”; the mutagenic call (Test System: AMES SALMONELLA TYPHIMURIUM, Strain/Indicator: TA1535, Metabolic Activation: NONE, Method: STANDARD PLATE) is “inactive; negative”; the mutagenic call (Test System: AMES SALMONELLA TYPHIMURIUM, Strain/Indicator: TA1537 (PKM101), Metabolic Activation: NONE, Method: STANDARD PLATE) was “active; positive”; the mutagenic call (Test System: AMES SALMONELLA TYPHIMURIUM, Strain/Indicator: TA1537, Metabolic Activation: NONE, Method: STANDARD PLATE) was “active; positive”; the mutagenic call (Test System: AMES SALMONELLA TYPHIMURIUM, Strain/Indicator: TA1538, Metabolic Activation: NONE, Method: STANDARD PLATE) was “inactive; negative”; the mutagenic call (Test System: AMES SALMONELLA TYPHIMURIUM, Strain/Indicator: TA1975 (PKM101), Metabolic Activation: NONE, Method: STANDARD PLATE) was “inactive; negative”. Also, the mutagenic call is “inactive; negative” (Test System: AMES SALMONELLA TYPHIMURIUM, Strain/Indicator: TA1975, Metabolic Activation: NONE, Method: STANDARD PLATE); “active; positive” (Test System: AMES SALMONELLA TYPHIMURIUM, Strain/Indicator: TA1977, Metabolic Activation: NONE, Method: STANDARD PLATE); “active; positive” (Test System: AMES SALMONELLA TYPHIMURIUM, Strain/Indicator: TA1978 (PKM101), Metabolic Activation: NONE, Method: STANDARD PLATE); “inactive; negative” (Test System: AMES SALMONELLA TYPHIMURIUM, Strain/Indicator: TA1978, Metabolic Activation: NONE, Method: STANDARD PLATE); “active; positive” (Test System: AMES SALMONELLA TYPHIMURIUM, Strain/Indicator: TA4001, Metabolic Activation: NONE, Method: STANDARD PLATE); “inactive; negative” (Test System: AMES SALMONELLA TYPHIMURIUM, Strain/Indicator: TA4006, Metabolic Activation: NONE, Method: STANDARD PLATE).
On to `C[C@H](CCC(=O)O)[C@H]1CC[C@H]2[C@@H]3CC[C@@H]4C[C@@H](O)CC[C@]4(C)[C@H]3C[C@H](O)[C@]12C`, for which the mutagenic call (Test System: AMES SALMONELLA TYPHIMURIUM, Strain/Indicator: TA98, Metabolic Activation: NONE, Method: FLUCTUATION TEST) is “inactive; negative”; the mutagenic call under setting [4] was “inactive; negative”; the mutagenic call under setting [5] is “inactive; negative”; the mutagenic call (Test System: AMES SALMONELLA TYPHIMURIUM, Strain/Indicator: TA100, Metabolic Activation: NONE, Method: FLUCTUATION TEST) was “inactive; negative”.
Turning to `CCC1(CC)C(=O)NC(=O)NC1=O`, the mutagenic call (End Point: IN VITRO MICRONUCLEUS, Test System: CHL/IU CELLS, Metabolic Activation: NONE) is “active; positive”.
Regarding `O=[N+]([O-])c1ccc2ccc3c4ccccc4nc4ccc1c2c43`, the mutagenic call is “active; positive” (Test System: AMES SALMONELLA TYPHIMURIUM, Strain/Indicator: TA98(1,8-DNP6), Metabolic Activation: NONE); “active; positive” (Test System: AMES SALMONELLA TYPHIMURIUM, Strain/Indicator: TA98(NR), Metabolic Activation: NONE); “active; positive” (Test System: AMES SALMONELLA TYPHIMURIUM, Strain/Indicator: TA98, Metabolic Activation: NONE).
`CCOC(=O)N(CCC=O)N=O`: the mutagenic call is “active; positive” under setting [6]; “active; positive” (Test System: AMES SALMONELLA TYPHIMURIUM, Strain/Indicator: TA104, Metabolic Activation: NONE, Method: PREINCUBATION); “active; positive” (Test System: AMES SALMONELLA TYPHIMURIUM, Strain/Indicator: TA1535, Metabolic Activation: NONE, Method: PREINCUBATION).
Regarding `C=C1C[C@@]23CC[C@H]4[C@@](C)(CCC[C@@]4(C)C(=O)O[C@@H]4O[C@H](CO)[C@@H](O)[C@H](O)[C@H]4O)[C@@H]2CC[C@]1(O[C@@H]1O[C@H](CO)[C@@H](O)[C@H](O[C@@H]2O[C@H](CO)[C@@H](O)[C@H](O)[C@H]2O)[C@H]1O[C@@H]1O[C@@H](C)[C@H](O)[C@@H](O)[C@H]1O)C3`, the mutagenic call (Test System: AMES SALMONELLA TYPHIMURIUM, Strain/Indicator: TM677, Metabolic Activation: RAT, LIVER, S-9, AROCLOR 1254, Method: PREINCUBATION) is “inactive; negative”.
As for `O=C1Nc2ccc([N+](=O)[O-])cc2C1=O`, the mutagenic call was “active; positive” (Test System: AMES SALMONELLA TYPHIMURIUM, Strain/Indicator: TA98, Metabolic Activation: HAMSTER, LIVER, S-9, AROCLOR 1254, Method: STANDARD PLATE); “active; positive” under setting [1]; “active; positive” (Test System: AMES SALMONELLA TYPHIMURIUM, Strain/Indicator: TA98, Metabolic Activation: RAT, LIVER, S-9, AROCLOR 1254, Method: STANDARD PLATE); “active; positive” (Test System: AMES SALMONELLA TYPHIMURIUM, Strain/Indicator: TA100, Metabolic Activation: HAMSTER, LIVER, S-9, AROCLOR 1254, Method: STANDARD PLATE); “active; positive” under setting [2]; “active; positive” (Test System: AMES SALMONELLA TYPHIMURIUM, Strain/Indicator: TA100, Metabolic Activation: RAT, LIVER, S-9, AROCLOR 1254, Method: STANDARD PLATE). The mutagenic call is “active; positive. reevaluation of results: positive” (Test System: MOUSE LYMPHOMA, Strain/Indicator: L5178Y (TK+/TK-), Metabolic Activation: NONE, Method: SUSPENSION/PLATE) and “active; positive. reevaluation of results: equivocal” (Test System: MOUSE LYMPHOMA, Strain/Indicator: L5178Y (TK+/TK-), Metabolic Activation: RAT, LIVER, S-9, AROCLOR 1254, Method: SUSPENSION/PLATE).
As to `CC(=O)c1cc(C(C)(C)C)cc2c1CCC2(C)C`, the mutagenic call (Test System: AMES SALMONELLA TYPHIMURIUM, Strain/Indicator: TA97, Metabolic Activation: NONE, Method: STANDARD PLATE) is “inactive; negative”; the mutagenic call (Test System: AMES SALMONELLA TYPHIMURIUM, Strain/Indicator: TA97, Metabolic Activation: RAT LIVER S-9, AROCLOR 1254, Method: STANDARD PLATE) is “inactive; negative”; the mutagenic call under setting [1] was “inactive; negative”; the mutagenic call (Test System: AMES SALMONELLA TYPHIMURIUM, Strain/Indicator: TA98, Metabolic Activation: RAT LIVER S-9, AROCLOR 1254, Method: STANDARD PLATE) is “inactive; negative”; the mutagenic call under setting [2] is “inactive; negative”; the mutagenic call (Test System: AMES SALMONELLA TYPHIMURIUM, Strain/Indicator: TA100, Metabolic Activation: RAT LIVER S-9, AROCLOR 1254, Method: STANDARD PLATE) was “inactive; negative”. The mutagenic call is “inactive; negative” under setting [3] and “inactive; negative” (Test System: AMES SALMONELLA TYPHIMURIUM, Strain/Indicator: TA102, Metabolic Activation: RAT LIVER S-9, AROCLOR 1254, Method: STANDARD PLATE).
In the case of `N#CCCC(=O)/C=C/c1ccc(C(=O)O)cc1`, the mutagenic call is “inactive; negative” under setting [4]; “inactive; negative” under setting [5]; “inactive; negative” under setting [6]; “inactive; negative” (Test System: AMES SALMONELLA TYPHIMURIUM, Strain/Indicator: TA100, Metabolic Activation: RAT, LIVER, S-9, PCB, Method: PREINCUBATION).
